Laboratory results reported in US12152020B2, “Pesticidally active azole-amide compounds” (SYNGENTA PARTICIPATIONS AG, priority 2018, dated 2024).

Assays:
Format in all cases: in vivo
[1] = tested on: Euschistus heros (Neotropical Brown Stink Bug); experiment: Example B2: Euschistus heros, soybean leaves sprayed, N2 nymphs; details: 120 h, application rate of 200 ppm, 5 days after infestation, in comparison to untreated samples, read-out: effect in at least one of the two categories (mortality or growth inhibition)
Procedure: Example B2: Euschistus heros (Neotropical Brown Stink Bug)
Soybean leaves on agar in 24-well microtiter plates were sprayed with aqueous test solutions prepared from 10′000 ppm DMSO stock solutions. After drying the leaves were infested with N2 nymphs. The samples were assessed for mortality and growth inhibition in comparison to untreated samples 5 days after infestation.
The following compounds gave an effect of at least 80% in at least one of the two categories (mortality or growth inhibition) at an application rate of 200 ppm: • P1, P2, P3, P7, P11, P12, P16, P17, P18, P22, P25, P29, P32, P33, P37, P38

[2] = tested on: Chilo suppressalis (Striped Rice Stemborer); experiment: Example B4: Chilo suppressalis, artificial diet, L2 larvae; details: 144 h, application rate of 200 ppm, 6 days after infestation, in comparison to untreated samples, read-out: control in at least one of the categories (mortality, anti-feedant effect, or growth inhibition)
Procedure: Example B4: Chilo suppressalis (Striped Rice Stemborer)
24-well microtiter plates with artificial diet were treated with aqueous test solutions prepared from 10′000 ppm DMSO stock solutions by pipetting. After drying, the plates were infested with L2 larvae (6-8 per well). The samples were assessed for mortality, anti-feeding effect, and growth inhibition in comparison to untreated samples 6 days after infestation. Control of Chilo suppressalis by a test sample is given when at least one of the categories mortality, anti-feedant effect, and growth inhibition is higher than the untreated sample.

[3] = tested on: Myzus persicae (Green Peach Aphid); experiment: Example B6: Myzus persicae feeding/contact activity, sunflower leaf discs; details: foliar, 144 h, application rate of 200 ppm, aphid population of mixed ages, 6 days after infestation
Procedure: Example B6: Myzus persicae (Green Peach Aphid): Feeding/Contact Activity
Sunflower leaf discs were placed onto agar in a 24-well microtiter plate and sprayed with aqueous test solutions prepared from 10′000 ppm DMSO stock solutions. After drying, the leaf discs were infested with an aphid population of mixed ages. The samples were assessed for mortality 6 days after infestation.

[4] = tested on: Myzus persicae (Green Peach Aphid); experiment: Example B8: Myzus persicae intrinsic activity, sucrose solution under Parafilm, 24-well; details: 120 h, test rate of 12 ppm, 5 days after infestation
From the text: Example B8: Myzus persicae (Green Peach Aphid): Intrinsic Activity
Test compounds prepared from 10′000 ppm DMSO stock solutions were applied by pipette into 24-well microtiter plates and mixed with sucrose solution. The plates were closed with a stretched Parafilm. A plastic stencil with 24 holes was placed onto the plate and infested pea seedlings were placed directly on the Parafilm. The infested plate was closed with a gel blotting paper and another plastic stencil and then turned upside down. The samples were assessed for mortality 5 days after infestation.

[5] = tested on: Myzus persicae (Green Peach Aphid); experiment: Example B13: Myzus persicae, sucrose solution under Parafilm, 96-well; details: 120 h, application rate of 50 ppm, 5 days after infestation
From the text: Example B13: Myzus persicae (Green Peach Aphid)
Test compounds prepared from 10′000 ppm DMSO stock solutions were applied by a liquid handling robot into 96-well microtiter plates and mixed with a sucrose solution. Parafilm was stretched over the 96-well microtiter plate and a plastic stencil with 96 holes was placed onto the plate. Aphids were sieved into the wells directly onto the Parafilm. The infested plates were closed with a gel blotting card and a second plastic stencil and then turned upside down. The samples were assessed for mortality 5 days after infestation.

[6] = tested on: Diabrotica balteata (Corn Root Worm); experiment: Example B1: Diabrotica balteata, maize sprouts sprayed, L2 larvae; details: 96 h, application rate of 200 ppm, 4 days after infestation, in comparison to untreated samples, read-out: effect in at least one of the two categories (mortality or growth inhibition)
Procedure: Example B1: Diabrotica balteata (Corn Root Worm)
Maize sprouts placed onto an agar layer in 24-well microtiter plates were treated with aqueous test solutions prepared from 10′000 ppm DMSO stock solutions by spraying. After drying, the plates were infested with L2 larvae (6 to 10 per well). The samples were assessed for mortality and growth inhibition in comparison to untreated samples 4 days after infestation.
The following compounds gave an effect of at least 80% in at least one of the two categories (mortality or growth inhibition) at an application rate of 200 ppm: • P2, P3, P4, P5, P6, P7, P8, P14, P15, P16, P17, P18, P19, P20, P21, P22, P23, P24, P25, P27, P28, P29, P30, P31, P32, P33, P34, P35

[7] = tested on: Plutella xylostella (Diamond Back Moth); experiment: Example B5: Plutella xylostella, artificial diet in 24-well plates, eggs; details: 192 h, application rate of 200 ppm, 8 days after infestation, in comparison to untreated samples, read-out: effect in at least one of the two categories (mortality or growth inhibition)
Procedure: Example B5: Plutella xylostella (Diamond Back Moth)
24-well microtiter plates with artificial diet were treated with aqueous test solutions prepared from 10′000 ppm DMSO stock solutions by pipetting. After drying, Plutella eggs were pipetted through a plastic stencil onto a gel blotting paper and the plate was closed with it. The samples were assessed for mortality and growth inhibition in comparison to untreated samples 8 days after infestation.
The following compounds gave an effect of at least 80% in at least one of the two categories (mortality or growth inhibition) at an application rate of 200 ppm: • P1, P2, P3, P4, P5, P7, P8, P9, P14, P15, P16, P17, P18, P21, P22, P23, P24, P25, P27, P28, P29, P30, P31, P32, P33, P34, P35, P36

[8] = tested on: Spodoptera littoralis (Egyptian Cotton Leaf Worm); experiment: Example B9: Spodoptera littoralis, cotton leaf discs sprayed, L1 larvae; details: foliar, 72 h, application rate of 200 ppm, five L1 larvae, 3 days after infestation, in comparison to untreated samples, read-out: control in at least one of the categories (mortality, anti-feedant effect, or growth inhibition)
Procedure: Example B9: Spodoptera littoralis (Egyptian Cotton Leaf Worm)
Cotton leaf discs were placed onto agar in 24-well microtiter plates and sprayed with aqueous test solutions prepared from 10′000 ppm DMSO stock solutions. After drying the leaf discs were infested with five L1 larvae. The samples were assessed for mortality, anti-feeding effect, and growth inhibition in comparison to untreated samples 3 days after infestation. Control of Spodoptera littoralis by a test sample is given when at least one of the categories mortality, anti-feedant effect, and growth inhibition is higher than the untreated sample.

[9] = tested on: Plutella xylostella (Diamondback Moth); experiment: Example B14: Plutella xylostella, artificial diet in 96-well plates, eggs; details: 216 h, application rate of 500 ppm, 9 days after infestation
Procedure: Example B14: Plutella xylostella (Diamondback Moth)
96-well microtiter plates containing artificial diet were treated with aqueous test solutions, prepared from 10′000 ppm DMSO stock solutions, by a liquid handling robot. After drying, eggs (˜30 per well) were infested onto a netted lid which was suspended above the diet. The eggs hatch and L1 larvae move down to the diet. The samples were assessed for mortality 9 days after infestation.
The following compounds gave an effect of at least 80% average mortality at an application rate of 500 ppm: • P2, P3, P5, P6, P7, P9, P15, P16, P17, P18, P20, P22, P24, P25, P30, P31, P32, P33, P38.

[10] = tested on: Frankliniella occidentalis (Western Flower Thrips); experiment: Example B3: Frankliniella occidentalis feeding/contact activity, sunflower leaf discs; details: foliar, 168 h, application rate of 200 ppm, population of mixed ages, 7 days after infestation
Procedure: Example B3: Frankliniella occidentalis (Western Flower Thrips):Feeding/Contact Activity
Sunflower leaf discs were placed on agar in 24-well microtiter plates and sprayed with aqueous test solutions prepared from […] stock solutions. After drying the leaf discs were infested with a Frankliniella population of mixed ages. The samples were assessed for mortality 7 days after infestation.

CC(c1nc(C(=O)N(C)C)nn1-c1ncccn1)N(C)C(=O)c1cc(C(F)(F)F)cc(C(F)(F)F)c1 (stereo not shown) [Compound P11, 5-[1-[[3,5-bis(trifluoromethyl)benzoyl]-methyl-amino]ethyl]-N,N-dimethyl-1-pyrimidin-2-yl-1,2,4-triazole-3-carboxamide]
≥ 80%: percent effect (mortality or growth inhibition) at 200 ppm [1] | percent control (mortality, anti-feedant effect or growth inhibition) at 200 ppm [2] | mortality at 200 ppm [3] | mortality at 12 ppm [4] | mortality at 50 ppm [5]

CC(NC(=O)c1cc(C(F)(F)F)cc(C(F)(F)F)c1)c1nc(Cl)nn1-c1ncccn1 (stereo not shown) [Compound P34, N-[1-(5-chloro-2-pyrimidin-2-yl-1,2,4-triazol-3-yl)ethyl]-3,5-bis(trifluoromethyl) benzamide]
≥ 80%: percent effect (mortality or growth inhibition) at 200 ppm [6] | percent control (mortality, anti-feedant effect or growth inhibition) at 200 ppm [2] | percent effect (mortality or growth inhibition) at 200 ppm [7] | mortality at 12 ppm [4] | percent control (mortality, anti-feedant effect or growth inhibition) at 200 ppm [8]

CC(NC(=O)c1cc(C(F)(F)F)cc(C(F)(F)F)c1)c1nc(C=O)nn1-c1ncccn1 (stereo not shown) [Compound P38, N-[1-(5-formyl-2-pyrimidin-2-yl-1,2,4-triazol-3-yl)ethyl]-3,5-bis(trifluoromethyl) benzamide]
≥ 80%: percent effect (mortality or growth inhibition) at 200 ppm [1] | mortality at 12 ppm [4] | mortality at 50 ppm [5] | mortality at 500 ppm [9]

CC(NC(=O)c1cc(C(F)(F)F)cc(C(F)(F)F)c1)c1nc(OC(F)F)nn1-c1ncccn1 (stereo not shown) [Compound P28, N-[1-[5-(difluoromethoxy)-2-pyrimidin-2-yl-1,2,4-triazol-3-yl]ethyl]-3,5-bis(trifluoromethyl)benzamide]
≥ 80%: percent effect (mortality or growth inhibition) at 200 ppm [6] | mortality at 200 ppm [10] | percent control (mortality, anti-feedant effect or growth inhibition) at 200 ppm [2] | percent effect (mortality or growth inhibition) at 200 ppm [7] | mortality at 12 ppm [4] | percent control (mortality, anti-feedant effect or growth inhibition) at 200 ppm [8]

CC(NC(=O)c1cc(Cl)cc(C(F)(F)F)c1)c1nc(Br)nn1-c1ncccn1 (stereo not shown) [Compound P33, N-[1-(5-bromo-2-pyrimidin-2-yl-1,2,4-triazol-3-yl)ethyl]-3-chloro-5-(trifluoromethyl) benzamide]
≥ 80%: percent effect (mortality or growth inhibition) at 200 ppm [6] | percent effect (mortality or growth inhibition) at 200 ppm [1] | percent control (mortality, anti-feedant effect or growth inhibition) at 200 ppm [2] | percent effect (mortality or growth inhibition) at 200 ppm [7] | percent control (mortality, anti-feedant effect or growth inhibition) at 200 ppm [8] | mortality at 50 ppm [5] | mortality at 500 ppm [9]

CC(NC(=O)c1cc(Br)cc(C(F)(F)F)c1)c1nc(Br)nn1-c1ncccn1 (stereo not shown) [Compound P31, 3-bromo-N-[1-(5-bromo-2-pyrimidin-2-yl-1,2,4-triazol-3-yl)ethyl]-5-(trifluoromethyl) benzamide]
≥ 80%: percent effect (mortality or growth inhibition) at 200 ppm [6] | percent control (mortality, anti-feedant effect or growth inhibition) at 200 ppm [2] | percent effect (mortality or growth inhibition) at 200 ppm [7] | mortality at 12 ppm [4] | percent control (mortality, anti-feedant effect or growth inhibition) at 200 ppm [8] | mortality at 500 ppm [9]

CC(NC(=O)c1cc(C(F)(F)F)cc(C(F)(F)F)c1)c1nc(-c2nnco2)nn1-c1ncccn1 (stereo not shown) [Compound P30, N-[1-[5-(1,3,4-oxadiazol-2-yl)-2-pyrimidin-2-yl-1,2,4-triazol-3-yl]ethyl]-3,5-bis(trifluoromethyl)benzamide]
≥ 80%: percent effect (mortality or growth inhibition) at 200 ppm [6] | percent control (mortality, anti-feedant effect or growth inhibition) at 200 ppm [2] | percent effect (mortality or growth inhibition) at 200 ppm [7] | mortality at 12 ppm [4] | percent control (mortality, anti-feedant effect or growth inhibition) at 200 ppm [8] | mortality at 50 ppm [5] | mortality at 500 ppm [9]

CC(NC(=O)c1cc(C(F)(F)F)cc(C(F)(F)F)c1)c1nc(OCC(F)F)nn1-c1ncccn1 (stereo not shown) [Compound P29, N-[1-[5-(2,2-difluoroethoxy)-2-pyrimidin-2-yl-1,2,4-triazol-3-yl]ethyl]-3,5-bis(trifluoromethyl) benzamide]
≥ 80%: percent effect (mortality or growth inhibition) at 200 ppm [6] | percent effect (mortality or growth inhibition) at 200 ppm [1] | percent control (mortality, anti-feedant effect or growth inhibition) at 200 ppm [2] | percent effect (mortality or growth inhibition) at 200 ppm [7] | percent control (mortality, anti-feedant effect or growth inhibition) at 200 ppm [8]

CC(NC(=O)c1cc(C(F)(F)F)cc(C(F)(F)F)c1)c1nc(OC(F)(F)F)nn1-c1ccccn1 (stereo not shown) [Compound P25, N-[1-[2-(2-pyridyl)-5-(trifluoromethoxy)-1,2,4-triazol-3-yl]ethyl]-3,5-bis(trifluoromethyl) benzamide]
≥ 80%: percent effect (mortality or growth inhibition) at 200 ppm [6] | percent effect (mortality or growth inhibition) at 200 ppm [1] | percent control (mortality, anti-feedant effect or growth inhibition) at 200 ppm [2] | percent effect (mortality or growth inhibition) at 200 ppm [7] | percent control (mortality, anti-feedant effect or growth inhibition) at 200 ppm [8] | mortality at 500 ppm [9]

C=C(F)c1nc(C(C)N(C)C(=O)c2cc(C(F)(F)F)cc(C(F)(F)F)c2)n(-c2ncccn2)n1 (stereo not shown) [Compound P14, N-[1-[5-(1-fluorovinyl)-2-pyrimidin-2-yl-1,2,4-triazol-3-yl]ethyl]-N-methyl-3,5-bis(trifluoromethyl) benzamide]
≥ 80%: percent effect (mortality or growth inhibition) at 200 ppm [6] | percent control (mortality, anti-feedant effect or growth inhibition) at 200 ppm [2] | percent effect (mortality or growth inhibition) at 200 ppm [7] | mortality at 50 ppm [5]
